Test results taken from US20160271097A1, “FORMULATION OF OLOPATADINE” (NEPHRON PHARMACEUTICALS CORPORATION, priority 2013, published 2016).

Assay: Dissolution of olopatadine in the formulation (minimum PVA)
Format: physicochemical
Conditions: Olopatadine about 2.0 mg/mL
Description: Initial experiments were conducted to examine the possible concentration ranges for the organic modifiers which would initially solubilize Olopatadine during formulation and maintain the solution stability such that no crystallization of the drug product would occur. An experiment was carried out to determine the minimum amount of PVA needed to obtain the total dissolution of Olopatadine in the formulation. The minimum amount of PVA determined to be effective in solubilizing the drug substance during formulation and which prevented crystal growth in the drug product was 0.5%. Concentrations of such PVA below 0.5% are insufficient to permit dissolution of Olopatadine concentrations of about 2.0 mg/mL. Concentrations at or […] were susceptible to the drug substance starting to dissolve but then precipitating back out of solution during formulation.

CN(C)CC/C=C1/c2ccccc2COc2ccc(CC(=O)O)cc21 [Olopatadine, {(11Z)-11-[3-(dimethylamino)propylidene]-6,11-dihydrodibenzo[b,e]oxepin-2-yl} acetic acid]
Minimum amount of PVA effective in solubilizing the drug substance and preventing crystal growth: 0.5%
